Assay results: patent EP3574917A1, “ANTI-CANCER AGENT, METHOD FOR SCREENING FOR ANTI-CANCER AGENT, KIT FOR DETERMINATION OF EFFICACY ON CANCER, AND METHOD FOR DETERMINING EFFICACY ON CANCER” (University of Miyazaki, priority 2017, dated 2018)

Assays:
Assay in all cases: cellular proliferative potential (cell counting kit-8)
Type in all cases: cell-based
HeLa = HeLa (NDRG2 hardly expressed), in the presence of AdOX, over time
Method: (§1) In the following Examples, HTLV-1-uninfected T-cell lymphocytic acute leukemia T-ALL (Jurkat and MOLT4), an HTLV-1-infected cell line (HUT102), an ATLL cell line (KOB), an osteosarcoma cell line (U2OS), and a uterine cancer cell line (HeLa) were used as cell lines. The cell lines described above were cultured in a RPM11640 or DMEM culture solution, to which 10% fetal bovine serum (FBS) supplemented or unsupplemented with IL2 (50 U/mL) was added, under 5% carbon dioxide at 37°C.
(§2) For each established cell line, 2 ×10^3 cells were cultured on a 96-well plate, and cell counting kit-8 (manufactured by DOJINDO CO., LTD) was added at a predetermined time. The number of cells was quantified based on an absorbance of 450 nm or 490 nm, to evaluate cellular proliferative potential.
(§3) In the cell lines of a solid cancer, the influence of the decreased expression of a PRMT5 gene was also evaluated in a manner similar to the manner of Example 2. The cellular proliferative potential of the parent lines, shluc cell lines, shPRMT5-3 cell lines, and shPRMT5-4 cell lines of U2OS and HeLa, and an influence on the cellular proliferative potential of a PRMT inhibitor were evaluated.

U2OS = U2OS (NDRG2 hardly expressed), in the presence of AdOX, over time
Method: as §1, §2, §3

MOLT4 = conditions: MOLT4, without the decreased expression of NDRG2, AdOX added at start of culture
Method: as §1, §2
(§4) In addition to HUT102 and KOB, Jurkat and MOLT4 were cultured. At the time of the start of the culture, AdOX (manufactured by Sigma-Aldrich Co. LLC) as a PRMT5 inhibitor was added to each culture medium. Like the Examples 2 described above, cellular proliferative potential was evaluated.

HUT102 = HUT102 (NDRG2 hardly expressed), AdOX added to culture medium at start of culture, over time
Method: as §1, §2, §4

KOB = KOB (NDRG2 hardly expressed), AdOX added to culture medium at start of culture, over time
Method: as §1, §2, §4

Jurkat = conditions: without the decreased expression of NDRG2, AdOX added at start of culture
Method: as §1, §2, §4

SMILES: Nc1ncnc2c1ncn2[C@@H](C=O)O[C@@H](C=O)CO [AdOX, adenosine-2',3'-dialdehyde]
- suppression of cell proliferation (HeLa): suppressed cell proliferation in a concentration-dependent manner
- suppression of cell proliferation (U2OS): suppressed cell proliferation in a concentration-dependent manner
- suppression of cell proliferation (MOLT4): not observed
- suppression of cell proliferation (HUT102): exhibited the suppression of cell proliferation in concentration-dependent manners
- suppression of cell proliferation (KOB): exhibited the suppression of cell proliferation in concentration-dependent manners
- suppression of cell proliferation (Jurkat): not observed
